# Patent US9758494B2, “N-(oxazol-2-yl)-aryl-carboxylic acid amides and use thereof as herbicides” (BAYER CROPSCIENCE AG, priority 2012, dated 2017)
# How the values were obtained:
# Assay type in all cases: in vivo
# [1] = test system: Brassica napus (Oilseed Rape); experiment: Pre-emergence, damage of crop plants; details: for damage of crop plants, Crop plant BRSNW: Dosage 320/ha (Table D); for damage of crop plants BRSNW: Dosage 320/ha (Table G)
# Description: (§1) Seeds of monocotyledonous and dicotyledonous weed plants and crop plants are laid out in wood-fiber pots in sandy loam and covered with soil. The compounds according to the invention, formulated in the form of wettable powders (WP) or as emulsion concentrates (EC), are then applied to the surface of the soil cover in the form of an aqueous suspension or emulsion at a water application rate equating to 600 to 800 l/ha, with addition of 0.2% wetting agent. After the treatment, the pots are placed in a greenhouse and kept under good growth conditions for the test plants. The damage to the test plants is assessed visually after a test period of 3 weeks by comparison with untreated controls (herbicidal activity in percent (%): 100% activity=the plants have died, 0% activity=like control plants). Here, for example, compounds No. 1-163, 1-171, 1-172, 1-283, 1-284, 1-294, 1-295, 1-334, 10-001 and 11-343, at an application rate of 320 g/ha, have an activity of at least 80% against Veronica persica.
# (§2) In the tables below, the properties of the compounds according to the invention are compared to those of the structurally most similar compounds known from WO 2012/028579 A1. These tests were carried out by the pre- and post-emergence method under the conditions mentioned under item 1 and item 2. Here, the herbicidal activity against various harmful plants and the damage of some important crop plants were compared at different dosages.
# Oryza sativa (Rice) [2] = experiment: Pre-emergence, damage of crop plants; details: for damage of crop plants, Crop plant ORYZA: Dosage 320/ha (Table E); for damage of crop plants ORYZA: Dosage 320/ha (Table G)
# Description: as §1, §2
# [3] = test system: Triticum aestivum (Wheat); experiment: Pre-emergence, damage of crop plants; details: Dosage 320/ha (Table E)
# Description: as §1, §2
# Abutilon theophrasti = experiment: Pre-emergence herbicidal action; details: Dosage 320/ha (Table C)
# Description: as §1, §2
# Alopecurus myosuroides [4] = experiment: Pre-emergence herbicidal action; details: Dosage 320/ha (Table D)
# Description: as §1, §2
# Amaranthus retroflexus = experiment: Pre-emergence herbicidal action; details: Dosage 320/ha (Table C)
# Description: as §1, §2
# Echinochloa crus galli = experiment: Pre-emergence herbicidal action; details: for herbicidal activity against harmful plants ECHCG: Dosage 320/ha (Table C); for herbicidal activity against harmful plants ECGCG: Dosage 80/ha (Table H)
# Description: as §1, §2
# Lolium multiflorum [5] = experiment: Pre-emergence herbicidal action; details: for herbicidal activity, Harmful plant LOLMU: Dosage 320/ha (Table E); for herbicidal activity against harmful plants LOLMU: Dosage 320/ha (Table F)
# Description: as §1, §2
# Matricaria inodora = experiment: Pre-emergence herbicidal action
# Description: as §1, §2
# Polygonum convolvulus = experiment: Pre-emergence herbicidal action; details: for herbicidal activity, Harmful plant POLCO: Dosage 320/ha (Table E); for herbicidal activity against harmful plants POLCO: Dosage 320/ha (Table F)
# Description: as §1, §2
# [6] = test system: Brassica napus (Oilseed Rape); experiment: Post-emergence, damage of crop plants; details: Dosage 20/ha (Table O)
# Method: (§3) Seeds of monocotyledonous and dicotyledonous weed plants and crop plants are laid out in wood fiber pots in sandy loam, covered with soil and cultivated in a greenhouse under good growth conditions. 2 to 3 weeks after sowing, the test plants are treated at the one-leaf stage. The compounds according to the invention, formulated in the form of wettable powders (WP) or as emulsion concentrates (EC), are then sprayed onto the green parts of the plants in the form of an aqueous suspension or emulsion at a water application rate equating to 600 to 800 l/ha, with addition of 0.2% wetting agent. After the test plants have been left to stand in the greenhouse under optimal growth conditions for about 3 weeks, the action of the preparations is assessed visually in comparison to untreated controls (herbicidal action in percent (%): 100% activity=the plants have died, 0% activity=like control plants). Here, for example, compounds No. 1-163, 1-171, 1-172, 1-173, 1-254, 1-283, 1-284, 1-293, 1-294 and 1-334, at an application rate of 80 g/ha, have an activity of at least 80% against Abutilon theophrasti and Amaranthus retroflexus.
# as §2
# Oryza sativa (Rice) [7] = experiment: Post-emergence, damage of crop plants; details: for damage of crop plants, Crop plant ORYZA: Dosage 80/ha (Table Q); for damage of crop plants, Crop plants ORYZA: Dosage 20/ha (Table S)
# Method: as §3, §2
# [8] = test system: Triticum aestivum (Wheat); experiment: Post-emergence, damage of crop plants; details: for damage of crop plants TRZAS: Dosage 20/ha (Table O); for damage of crop plants, Crop plants TRZAS: Dosage 20/ha (Table S)
# Method: as §3, §2
# Alopecurus myosuroides [9] = experiment: Post-emergence herbicidal action; details: Dosage 80/ha (Table P)
# Method: as §3, §2
# Avena fatua = experiment: Post-emergence herbicidal action; details: Dosage 80/ha (Table P)
# Method: as §3, §2
# Lolium multiflorum [10] = experiment: Post-emergence herbicidal action; details: for herbicidal activity against harmful plants LOMU: Dosage 80/ha (Table P); for herbicidal activity, Harmful plants LOLMU: Dosage 80/ha (Table Q)
# Method: as §3, §2
# Setaria viridis = experiment: Post-emergence herbicidal action
# Method: as §3, §2
# Cyperus serotinus = experiment: Post-emergence herbicidal action; details: Dosage 80/ha (Table Q)
# Method: as §3, §2
# Zea mays (Corn) [11] = experiment: Pre-emergence, damage of crop plants; details: Dosage 320/ha (Table G)
# Description: as §1, §2
# Zea mays (Corn) [12] = experiment: Post-emergence, damage of crop plants; details: for damage of crop plants, Crop plants ZEAMX: Dosage 20/ha (Table S)
# Method: as §3, §2
# Pharbitis purpureum = experiment: Post-emergence herbicidal action; details: Dosage 20/ha (Table S)
# Method: as §3, §2
# Stellaria media = experiment: Post-emergence herbicidal action; details: Dosage 5/ha (Table T)
# Method: as §3, §2
# Veronica persica = experiment: Post-emergence herbicidal action; details: Dosage 5/ha (Table T)
# Method: as §3, §2
smiles,measurement,setting,value
Cc1c(C(=O)Nc2ncco2)ccc(S(C)(=O)=O)c1S(C)(=O)=O [1-163],"damage of crop plants, Crop plant BRSNW",[1],10%
same,"damage of crop plants, Crop plant ORYZA",Oryza sativa (Rice) [2],0%
same,"damage of crop plants, Crop plant TRZAS",[3],0%
same,herbicidal activity against harmful plants ABUTH,Abutilon theophrasti,100%
same,"herbicidal activity, Harmful plant ALOMY",Alopecurus myosuroides [4],30%
same,herbicidal activity against harmful plants AMARE,Amaranthus retroflexus,90%
same,herbicidal activity against harmful plants ECHCG,Echinochloa crus galli,70%
same,"herbicidal activity, Harmful plant LOLMU",Lolium multiflorum [5],100%
same,herbicidal activity against harmful plants MATIN,Matricaria inodora; Dosage 320/ha (Table C),100%
same,"herbicidal activity, Harmful plant POLCO",Polygonum convolvulus,70%
same,damage of crop plants BRSNW,[6],40%
same,damage of crop plants ORYZA,Oryza sativa (Rice) [7]; Dosage 20/ha (Table O),0%
same,damage of crop plants TRZAS,[8],20%
same,herbicidal activity against harmful plants ALOMY,Alopecurus myosuroides [9],60%
same,herbicidal activity against harmful plants AVEFA,Avena fatua,40%
same,herbicidal activity against harmful plants LOMU,Lolium multiflorum [10],20%
same,herbicidal activity against harmful plants SETVI,Setaria viridis; Dosage 80/ha (Table P),100%
C[S+]([O-])c1c(S(C)(=O)=O)ccc(C(=O)Nc2ncco2)c1Cl (stereo not drawn) [1-284],herbicidal activity against harmful plants LOLMU,Lolium multiflorum [5],100%
same,herbicidal activity against harmful plants POLCO,Polygonum convolvulus,70%
same,"damage of crop plants, Crop plant ORYZA",Oryza sativa (Rice) [7],20%
same,"herbicidal activity, Harmful plants CYPES",Cyperus serotinus,60%
same,herbicidal activity against harmful plants LOLMU,Lolium multiflorum [10]; Dosage 20/ha (Table R),60%
same,"herbicidal activity, Harmful plants LOLMU",Lolium multiflorum [10],70%
same,herbicidal activity against harmful plants SETVI,Setaria viridis; Dosage 20/ha (Table R),90%
C[S+]([O-])c1c(C(F)(F)F)ccc(C(=O)Nc2ncco2)c1Cl (stereo not drawn) [1-294],damage of crop plants BRSNW,[1],20%
same,damage of crop plants ORYZA,Oryza sativa (Rice) [2],30%
same,damage of crop plants ZEAMX,Zea mays (Corn) [11],0%
same,"damage of crop plants, Crop plants ORYZA",Oryza sativa (Rice) [7],0%
same,"damage of crop plants, Crop plants TRZAS",[8],0%
same,"damage of crop plants, Crop plants ZEAMX",Zea mays (Corn) [12],0%
same,"herbicidal activity, Harmful plant PHBPU",Pharbitis purpureum,70%
O=C(Nc1ncco1)c1ccc(C(F)(F)F)nc1Cl [10-1],Damage of ORYZA,Oryza sativa (Rice) [2]; 20 g/ha (Table I),0%
same,Damage of ORYZA,Oryza sativa (Rice) [2]; 80 g/ha (Table I),0%
same,herbicidal activity against harmful plants ECGCG,Echinochloa crus galli,70%
same,herbicidal activity against harmful plants MATIN,Matricaria inodora; Dosage 80/ha (Table H),90%
same,damage of crop plants ORYZA,Oryza sativa (Rice) [7]; Dosage 80 g/ha (Table U),0%
same,damage of crop plants ZEAMX,Zea mays (Corn) [12]; Dosage 80 g/ha (Table U),0%
same,herbicidal activity against harmful plants STEME,Stellaria media,40%
same,herbicidal activity against harmful plants VERPE,Veronica persica,90%
"Cc1c(C(=O)Nc2nnnn2C)ccc(S(C)(=O)=O)c1S(C)(=O)=O [WO 2012/028579, No. 1-188]",herbicidal activity against harmful plants ABUTH,Abutilon theophrasti,0%
same,herbicidal activity against harmful plants AMARE,Amaranthus retroflexus,40%
same,herbicidal activity against harmful plants ECHCG,Echinochloa crus galli,0%
same,herbicidal activity against harmful plants MATIN,Matricaria inodora; Dosage 320/ha (Table C),40%
same,damage of crop plants BRSNW,[6],100%
same,damage of crop plants ORYZA,Oryza sativa (Rice) [7]; Dosage 20/ha (Table O),20%
same,damage of crop plants TRZAS,[8],40%
"Cn1nnnc1NC(=O)c1ccc(S(C)(=O)=O)c([S+](C)[O-])c1Cl (stereo not drawn) [WO 2012/028579, No. 4-293]",herbicidal activity against harmful plants LOLMU,Lolium multiflorum [5],20%
same,herbicidal activity against harmful plants POLCO,Polygonum convolvulus,20%
same,"damage of crop plants, Crop plant ORYZA",Oryza sativa (Rice) [7],40%
same,"herbicidal activity, Harmful plants CYPES",Cyperus serotinus,40%
same,"herbicidal activity, Harmful plants LOLMU",Lolium multiflorum [10],40%
"Cn1nnnc1NC(=O)c1ccc(C(F)(F)F)c([S+](C)[O-])c1Cl (stereo not drawn) [WO 2012/028579, No. 4-639]",damage of crop plants BRSNW,[1],90%
same,damage of crop plants ORYZA,Oryza sativa (Rice) [2],90%
same,damage of crop plants ZEAMX,Zea mays (Corn) [11],40%
same,"damage of crop plants, Crop plants ORYZA",Oryza sativa (Rice) [7],60%
same,"damage of crop plants, Crop plants TRZAS",[8],100%
same,"damage of crop plants, Crop plants ZEAMX",Zea mays (Corn) [12],80%
same,"herbicidal activity, Harmful plant PHBPU",Pharbitis purpureum,40%
"Cc1c(C(=O)Nc2nnnn2-c2ccccc2)ccc(S(C)(=O)=O)c1S(C)(=O)=O [WO 2012/028579, No. 6-189]","damage of crop plants, Crop plant BRSNW",[1],90%
same,"damage of crop plants, Crop plant ORYZA",Oryza sativa (Rice) [2],80%
same,"damage of crop plants, Crop plant TRZAS",[3],30%
same,"herbicidal activity, Harmful plant ALOMY",Alopecurus myosuroides [4],0%
same,"herbicidal activity, Harmful plant LOLMU",Lolium multiflorum [5],70%
same,"herbicidal activity, Harmful plant POLCO",Polygonum convolvulus,0%
same,herbicidal activity against harmful plants ALOMY,Alopecurus myosuroides [9],0%
same,herbicidal activity against harmful plants AVEFA,Avena fatua,0%
same,herbicidal activity against harmful plants LOMU,Lolium multiflorum [10],0%
same,herbicidal activity against harmful plants SETVI,Setaria viridis; Dosage 80/ha (Table P),20%
"Cn1ncnc1NC(=O)c1ccc(C(F)(F)F)nc1Cl [WO 2012/028579, No. 8-9]",herbicidal activity against harmful plants ECGCG,Echinochloa crus galli,0%
same,herbicidal activity against harmful plants MATIN,Matricaria inodora; Dosage 80/ha (Table H),60%
same,herbicidal activity against harmful plants STEME,Stellaria media,10%
same,herbicidal activity against harmful plants VERPE,Veronica persica,60%
